Read-outs that look alike come from different tables or passages of the source.
Experiments:
THP-1 cells = assay: Measurement of IL-1β production, hTRF protocol (second alternative procedure), THP-1 cells; format: cell-based, human; conditions: read-out: NLRP3 hILIB EC50
Outline: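 Compounds, dilution series starting at a final 10 μM, were incubated 2 hours at 37° C with PMA-differentiated THP-1 cells (50 ng/ml overnight; 50,000 cells/well, 2% FBS RPMI). Released IL-1β quantified in supernatant by hTRF kit with 1:40 antibody dilution, 4° C overnight, 665/615 nm ratio.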

TLR7 = target: T1, TLR7 (Homo sapiens, UniProt Q9NYK1); assay: In vitro human TLR7 binding reporter assay (HEK-Blue, NF-kB/AP1-inducible SEAP); format: cell-based; conditions: read-out: TLR7 Agonist EC50
T1 construct: human HEK-Blue cells co-expressing a TLR7 or TLR8 gene
T1 sequence (Q9NYK1 27-1049): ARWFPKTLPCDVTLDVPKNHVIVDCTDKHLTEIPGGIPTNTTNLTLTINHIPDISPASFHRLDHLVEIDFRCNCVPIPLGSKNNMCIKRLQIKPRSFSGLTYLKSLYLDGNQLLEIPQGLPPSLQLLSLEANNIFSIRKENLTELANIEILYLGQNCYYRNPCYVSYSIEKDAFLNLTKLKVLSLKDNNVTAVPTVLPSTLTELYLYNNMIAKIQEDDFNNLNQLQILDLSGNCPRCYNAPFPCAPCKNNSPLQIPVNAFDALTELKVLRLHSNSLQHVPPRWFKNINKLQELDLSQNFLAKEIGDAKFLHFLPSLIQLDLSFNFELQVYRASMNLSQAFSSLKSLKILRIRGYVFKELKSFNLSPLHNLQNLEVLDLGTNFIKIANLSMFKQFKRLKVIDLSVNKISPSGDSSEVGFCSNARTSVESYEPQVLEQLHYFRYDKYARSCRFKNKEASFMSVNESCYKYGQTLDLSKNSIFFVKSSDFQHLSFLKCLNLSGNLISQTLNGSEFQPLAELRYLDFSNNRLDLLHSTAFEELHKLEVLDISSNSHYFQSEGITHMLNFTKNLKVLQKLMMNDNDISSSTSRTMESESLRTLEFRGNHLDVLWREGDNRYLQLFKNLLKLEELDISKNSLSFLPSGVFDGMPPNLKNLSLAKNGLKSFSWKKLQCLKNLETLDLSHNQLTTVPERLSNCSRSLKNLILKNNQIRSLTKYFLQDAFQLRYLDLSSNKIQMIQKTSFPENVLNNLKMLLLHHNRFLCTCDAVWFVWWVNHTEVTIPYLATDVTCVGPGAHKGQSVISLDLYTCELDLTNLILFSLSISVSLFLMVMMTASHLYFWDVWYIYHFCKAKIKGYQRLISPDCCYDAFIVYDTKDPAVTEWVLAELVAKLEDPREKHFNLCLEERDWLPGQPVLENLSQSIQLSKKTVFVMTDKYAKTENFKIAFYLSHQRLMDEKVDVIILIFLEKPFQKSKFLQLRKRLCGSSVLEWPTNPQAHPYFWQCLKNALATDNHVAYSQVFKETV
Outline: (§1)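 EC50s come from NF-kB/AP1-driven SEAP secretion in HEK-Blue cells expressing TLR7 or TLR8, measured with Quanti-Blue after an 18 h compound incubation. Maximal response is defined by a 50 μM reference standard.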

TLR8 = target: T2, TLR8 (Homo sapiens, UniProt Q9NR97); assay: In vitro human TLR8 binding reporter assay (HEK-Blue, NF-kB/AP1-inducible SEAP); format: cell-based; conditions: read-out: TLR8 Agonist EC50
T2 construct: human HEK-Blue cells co-expressing a TLR7 or TLR8 gene
T2 sequence (Q9NR97 27-1041): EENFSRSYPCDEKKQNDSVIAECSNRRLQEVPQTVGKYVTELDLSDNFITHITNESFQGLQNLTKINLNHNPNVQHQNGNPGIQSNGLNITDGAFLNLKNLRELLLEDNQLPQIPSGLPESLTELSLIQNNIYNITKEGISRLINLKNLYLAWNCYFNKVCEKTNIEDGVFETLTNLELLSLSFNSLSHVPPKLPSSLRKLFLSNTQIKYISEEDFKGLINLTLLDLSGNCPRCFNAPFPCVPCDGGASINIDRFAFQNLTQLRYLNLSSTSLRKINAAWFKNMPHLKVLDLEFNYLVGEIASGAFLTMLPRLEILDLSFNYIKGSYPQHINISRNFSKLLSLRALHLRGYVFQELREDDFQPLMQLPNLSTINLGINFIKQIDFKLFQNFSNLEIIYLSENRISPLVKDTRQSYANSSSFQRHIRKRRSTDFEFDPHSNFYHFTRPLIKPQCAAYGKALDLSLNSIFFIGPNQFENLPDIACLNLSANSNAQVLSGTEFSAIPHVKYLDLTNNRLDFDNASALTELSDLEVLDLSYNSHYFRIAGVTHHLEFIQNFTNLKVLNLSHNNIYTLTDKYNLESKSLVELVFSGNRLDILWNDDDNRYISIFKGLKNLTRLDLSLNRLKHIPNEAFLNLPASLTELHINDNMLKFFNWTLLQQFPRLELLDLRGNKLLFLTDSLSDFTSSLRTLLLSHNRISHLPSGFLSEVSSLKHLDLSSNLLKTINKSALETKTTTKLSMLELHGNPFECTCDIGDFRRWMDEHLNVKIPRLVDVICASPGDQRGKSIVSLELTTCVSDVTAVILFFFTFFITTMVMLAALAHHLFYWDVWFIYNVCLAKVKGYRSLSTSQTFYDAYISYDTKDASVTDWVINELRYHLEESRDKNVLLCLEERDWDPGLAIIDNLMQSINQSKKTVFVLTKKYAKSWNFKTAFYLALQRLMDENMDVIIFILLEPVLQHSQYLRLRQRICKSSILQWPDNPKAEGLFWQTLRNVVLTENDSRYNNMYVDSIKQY
Outline: as §1

[1] = Homo sapiens, THP-1, IL-1β production, human
[2] = Homo sapiens, THP-1, IL-1β production, human cells

Structure (SMILES)	EC50 (THP-1 cells; [1])	EC50 (TLR7; activity range class)	EC50 (TLR8; activity range class)	EC50 (THP-1 cells; [2])	EC50 (TLR7; activity range)	EC50 (TLR8; activity range)	EC50 (THP-1 cells; IL-1β production, human)
Nc1nc2cc(-c3cc[nH]n3)ccc2c2cn(CCNC(=O)c3ncccc3F)nc12 [Example 53]	0.45 µM	> 100 µM	> 100 µM	–	–	–	–
CC(=O)N(C)CCn1cc2c(n1)c(N)nc1cc(-c3cc[nH]n3)ccc12 [Example 119, N-{2-[4-amino-7-(1H-pyrazol-3-yl)-2H-pyrazolo[3,4-c]quinolin-2-yl]ethyl}-N-methylacetamide]	9.02 µM	> 100 µM	> 100 µM	–	–	–	–
Nc1nc2cc(-c3cc[nH]n3)ccc2c2nn(CCOCCO)cc12 [Example 309]	0.75 µM	> 100 µM	> 100 µM	–	–	–	–
Nc1nc2cc(-c3cc[nH]n3)ccc2c2cn(CCNCc3cccc(F)c3)nc12 [Example 106]	1.91 µM	20 to 100 µM	20 to 100 µM	–	–	–	–
Cc1nc(C(=O)NCCn2cc3c(n2)c(N)nc2cc(-n4cccn4)ccc23)co1 [Example 183]	0.11 µM	> 100 µM	20 to 100 µM	–	–	–	–
CC(C)(Cn1cc2c(N)nc3cc(-c4ccn[nH]4)ccc3c2n1)C(=O)NCc1ccccn1 [Example 611]	–	–	–	9.94 µM	> 100 µM	> 100 µM	–
CN(C)CCn1cc2c(n1)c(N)nc1cc(-c3cc[nH]n3)ccc12 [Example 21]	2.08 µM	20 to 100 µM	> 100 µM	–	–	–	–
Nc1nc2cc(-c3cc[nH]n3)ccc2c2cn(CCCc3cccnc3)nc12 [Example 26]	0.98 µM	> 100 µM	> 100 µM	–	–	–	–
COCCN(C)C(=O)Cn1cc2c(n1)c(N)nc1cc(-c3cc[nH]n3)ccc12 [Example 542]	–	–	–	1.58 µM	> 100 µM	> 100 µM	–
Nc1nc2cc(-c3cc[nH]n3)ccc2c2nn(C[C@@H]3CCCO3)cc12 [Example 330]	0.17 µM	> 100 µM	> 100 µM	–	–	–	–
Nc1nc2cc(-c3cc[nH]n3)ccc2c2nn(CC(O)CO)cc12 (stereo not drawn) [Example 234]	0.56 µM	> 100 µM	> 100 µM	–	–	–	–
Nc1nc2cc(-c3cc[nH]n3)ccc2c2cn(Cc3nc(-c4ccccc4)no3)nc12 [Example 169]	0.39 µM	> 100 µM	20 to 100 µM	–	–	–	–
Nc1nc2cc(-c3cc[nH]n3)ccc2c2cn(CCCOc3ccc(F)cc3)nc12 [Example 6]	0.56 µM	> 100 µM	> 100 µM	–	–	–	–
CCS(=O)(=O)N[C@@H](C)Cn1cc2c(N)nc3cc(-c4cc[nH]n4)ccc3c2n1 [Example 465]	–	–	–	1.9 µM	> 100 µM	> 100 µM	–
CC(C)(Cn1cc2c(N)nc3cc(-c4ccn[nH]4)ccc3c2n1)C(=O)N1CCOCC1 [Example 591]	–	–	–	17 µM	> 100 µM	> 100 µM	–
NC(=O)Cn1cc2c(N)nc3cc(-n4cccn4)ccc3c2n1 [Example 555]	–	–	–	0.33 µM	> 100 µM	> 100 µM	–

Structure (SMILES)	EC50 (THP-1 cells; [1])	EC50 (TLR7; activity range class)	EC50 (TLR8; activity range class)	EC50 (THP-1 cells; [2])	EC50 (TLR7; activity range)	EC50 (TLR8; activity range)	EC50 (THP-1 cells; IL-1β production, human)
CC(C)n1cc2c(N)nc3cc(-c4cc[nH]n4)ccc3c2n1 [Example 326]	0.22 µM	> 100 µM	> 100 µM	–	–	–	–
Nc1nc2cc(-c3cc[nH]n3)ccc2c2nn(C3CCCC3O)cc12 (single isomer, unassigned) [Example 340]	–	> 100 µM	> 100 µM	–	–	–	0.62 µM
NC(=O)Cn1cc2c(n1)c(N)nc1cc(-c3ccn[nH]3)ccc12 [Example 541]	–	–	–	0.65 µM	> 100 µM	> 100 µM	–
COCCS(=O)(=O)NCCc1cc2c(N)nc3cc(-c4cc[nH]n4)ccc3c2[nH]1 [Example 498]	–	–	–	2.39 µM	> 100 µM	> 100 µM	–
Nc1nc2cc(-c3cc[nH]n3)ccc2c2nn(CC3CCCO3)cc12 (stereo not drawn) [Example 229]	0.08 µM	> 100 µM	> 100 µM	–	–	–	–
N#CC1(Cn2cc3c(N)nc4cc(-c5cc[nH]n5)ccc4c3n2)CC1 [Example 464]	–	–	–	0.24 µM	> 100 µM	> 100 µM	–
Nc1nc2cc(-n3cccn3)ccc2c2cn(CCN3CCOCC3)nc12 [Example 13]	1.78 µM	20 to 100 µM	> 100 µM	–	–	–	–
NC(=O)Cn1cc2c(n1)c(N)nc1cc(-c3ccn[nH]3)ccc12 [Example 191]	7.19 µM	> 100 µM	> 100 µM	–	–	–	–
CC(C)(Cn1cc2c(N)nc3cc(-c4ccn[nH]4)ccc3c2n1)C(N)=O [Example 604]	–	–	–	0.85 µM	> 100 µM	> 100 µM	–
Nc1nc2cc(-c3ccn[nH]3)ccc2c2nn(CCNS(=O)(=O)C3CC3)cc12 [Example 590]	–	–	–	1.2 µM	> 100 µM	> 100 µM	–
COCCn1cc2c(N)nc3cc(-c4cc[nH]n4)ccc3c2n1 [Example 207, 2-(2-methoxyethyl)-7-(1H-pyrazol-3-yl)-2H-pyrazolo[4,3-c]quinolin-4-amine]	0.14 µM	> 100 µM	> 100 µM	–	–	–	–
CO[C@@H](CO)Cn1cc2c(n1)c(N)nc1cc(-c3cc[nH]n3)ccc12 [Example 459]	–	–	–	0.27 µM	> 100 µM	> 100 µM	–
CCCCn1cc2c(N)nc3cc(-c4cc[nH]n4)ccc3c2n1 [Example 305]	0.29 µM	> 100 µM	> 100 µM	–	–	–	–
COc1nc(C(=O)NCCc2cc3c(N)nc4cc(-c5ccn[nH]5)ccc4c3[nH]2)cs1 [Example 447]	–	–	–	0.38 µM	> 100 µM	> 100 µM	–
CN1CCN(C(=O)Cn2cc3c(n2)c(N)nc2cc(-c4cc[nH]n4)ccc23)CC1 [Example 552]	–	–	–	9.89 µM	> 100 µM	> 100 µM	–
CC(C(=O)NCC1CCOCC1)n1cc2c(N)nc3cc(-c4ccn[nH]4)ccc3c2n1 (stereo not drawn) [Example 566]	–	–	–	27.6 µM	> 100 µM	> 100 µM	–
